# Measurements as given in patent US9321776B2, “Isochromene derivatives as phoshoinositide 3-kinases inhibitors” (CHIESI FARMACEUTICI S.p.A., priority 2013, dated 2016).
# Counter-ions that a name gives are not always drawn.
# Key:
# Assay in all cases: PI3K enzyme inhibitory activity in the cell free assay (ADP-Glo Kinase Assay)
# Assay type in all cases: biochemical
# PI3Kα = biological target: T1, PI3Kα (Homo sapiens, UniProt P42336); settings: human recombinant PI3Kα, ATP 50 μM; read-out: PI3K alpha inhibition
# T1 construct: purchased Millipore Ltd (Billerica, Mass.)
# T1 sequence (P42336 whole entry): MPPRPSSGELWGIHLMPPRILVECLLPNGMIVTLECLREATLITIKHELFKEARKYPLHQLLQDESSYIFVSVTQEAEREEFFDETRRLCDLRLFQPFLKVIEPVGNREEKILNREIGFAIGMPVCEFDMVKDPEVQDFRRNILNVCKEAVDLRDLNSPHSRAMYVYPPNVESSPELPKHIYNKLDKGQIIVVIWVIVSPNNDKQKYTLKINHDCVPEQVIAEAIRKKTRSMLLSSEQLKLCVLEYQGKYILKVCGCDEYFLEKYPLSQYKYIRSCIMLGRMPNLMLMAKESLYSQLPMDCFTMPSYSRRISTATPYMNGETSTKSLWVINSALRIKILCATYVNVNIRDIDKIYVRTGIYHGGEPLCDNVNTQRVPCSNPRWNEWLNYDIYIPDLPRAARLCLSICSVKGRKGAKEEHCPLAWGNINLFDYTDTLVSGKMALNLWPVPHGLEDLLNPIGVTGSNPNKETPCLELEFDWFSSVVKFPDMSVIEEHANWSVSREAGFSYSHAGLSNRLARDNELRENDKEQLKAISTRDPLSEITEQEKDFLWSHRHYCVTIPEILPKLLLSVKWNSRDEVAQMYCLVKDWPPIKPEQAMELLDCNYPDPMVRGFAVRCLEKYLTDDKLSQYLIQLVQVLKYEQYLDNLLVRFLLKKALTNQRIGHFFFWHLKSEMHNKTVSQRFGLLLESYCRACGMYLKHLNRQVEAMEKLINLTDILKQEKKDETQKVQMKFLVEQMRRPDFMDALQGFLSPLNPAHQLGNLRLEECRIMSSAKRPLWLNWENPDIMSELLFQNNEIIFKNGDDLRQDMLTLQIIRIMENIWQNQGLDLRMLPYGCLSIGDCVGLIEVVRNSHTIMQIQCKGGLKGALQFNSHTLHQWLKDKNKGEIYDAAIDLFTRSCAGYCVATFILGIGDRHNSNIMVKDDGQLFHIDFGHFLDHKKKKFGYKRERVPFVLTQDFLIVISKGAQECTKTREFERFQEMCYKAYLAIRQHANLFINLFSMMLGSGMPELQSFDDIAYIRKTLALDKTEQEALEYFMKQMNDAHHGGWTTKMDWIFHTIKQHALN
# PI3Kβ = biological target: T2, PI3Kβ (Homo sapiens, UniProt P42338); settings: human recombinant PI3Kβ, ATP 100 μM; read-out: PI3K beta inhibition
# T2 construct: purchased Millipore Ltd (Billerica, Mass.)
# T2 sequence (P42338 whole entry): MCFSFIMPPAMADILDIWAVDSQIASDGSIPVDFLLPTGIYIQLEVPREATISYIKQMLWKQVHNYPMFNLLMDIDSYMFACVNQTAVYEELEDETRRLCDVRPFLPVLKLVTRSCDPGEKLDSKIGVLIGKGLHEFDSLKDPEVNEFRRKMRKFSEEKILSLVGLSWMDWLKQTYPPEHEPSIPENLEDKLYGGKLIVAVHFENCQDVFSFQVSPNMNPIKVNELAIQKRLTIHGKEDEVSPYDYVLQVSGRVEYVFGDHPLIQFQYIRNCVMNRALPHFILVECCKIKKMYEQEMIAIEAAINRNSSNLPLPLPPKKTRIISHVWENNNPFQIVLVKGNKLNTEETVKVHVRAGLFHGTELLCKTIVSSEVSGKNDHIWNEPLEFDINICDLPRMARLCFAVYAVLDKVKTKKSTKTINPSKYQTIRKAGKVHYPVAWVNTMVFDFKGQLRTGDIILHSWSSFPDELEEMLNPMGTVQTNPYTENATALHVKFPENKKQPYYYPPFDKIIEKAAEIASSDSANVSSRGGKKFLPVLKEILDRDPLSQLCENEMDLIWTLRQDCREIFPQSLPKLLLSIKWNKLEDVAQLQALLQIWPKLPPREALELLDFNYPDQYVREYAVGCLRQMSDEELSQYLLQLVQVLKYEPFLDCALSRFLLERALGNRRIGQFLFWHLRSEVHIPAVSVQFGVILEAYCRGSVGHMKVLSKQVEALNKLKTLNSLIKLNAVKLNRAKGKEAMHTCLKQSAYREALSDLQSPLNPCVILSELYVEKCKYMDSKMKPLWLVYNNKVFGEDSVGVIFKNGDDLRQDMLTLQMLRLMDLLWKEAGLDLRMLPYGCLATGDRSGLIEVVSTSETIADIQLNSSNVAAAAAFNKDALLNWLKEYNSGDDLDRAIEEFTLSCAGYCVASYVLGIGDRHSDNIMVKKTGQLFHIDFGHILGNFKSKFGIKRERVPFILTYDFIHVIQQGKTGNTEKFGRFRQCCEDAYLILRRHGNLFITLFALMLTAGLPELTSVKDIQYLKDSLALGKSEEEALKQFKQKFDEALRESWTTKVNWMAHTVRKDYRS
# PI3Kδ = biological target: T3, PI3Kδ (Homo sapiens, UniProt O00329); settings: human recombinant PI3Kδ, ATP 80 μM; read-out: PI3K delta inhibition
# T3 construct: purchased Millipore Ltd (Billerica, Mass.)
# T3 sequence (O00329 1-1044): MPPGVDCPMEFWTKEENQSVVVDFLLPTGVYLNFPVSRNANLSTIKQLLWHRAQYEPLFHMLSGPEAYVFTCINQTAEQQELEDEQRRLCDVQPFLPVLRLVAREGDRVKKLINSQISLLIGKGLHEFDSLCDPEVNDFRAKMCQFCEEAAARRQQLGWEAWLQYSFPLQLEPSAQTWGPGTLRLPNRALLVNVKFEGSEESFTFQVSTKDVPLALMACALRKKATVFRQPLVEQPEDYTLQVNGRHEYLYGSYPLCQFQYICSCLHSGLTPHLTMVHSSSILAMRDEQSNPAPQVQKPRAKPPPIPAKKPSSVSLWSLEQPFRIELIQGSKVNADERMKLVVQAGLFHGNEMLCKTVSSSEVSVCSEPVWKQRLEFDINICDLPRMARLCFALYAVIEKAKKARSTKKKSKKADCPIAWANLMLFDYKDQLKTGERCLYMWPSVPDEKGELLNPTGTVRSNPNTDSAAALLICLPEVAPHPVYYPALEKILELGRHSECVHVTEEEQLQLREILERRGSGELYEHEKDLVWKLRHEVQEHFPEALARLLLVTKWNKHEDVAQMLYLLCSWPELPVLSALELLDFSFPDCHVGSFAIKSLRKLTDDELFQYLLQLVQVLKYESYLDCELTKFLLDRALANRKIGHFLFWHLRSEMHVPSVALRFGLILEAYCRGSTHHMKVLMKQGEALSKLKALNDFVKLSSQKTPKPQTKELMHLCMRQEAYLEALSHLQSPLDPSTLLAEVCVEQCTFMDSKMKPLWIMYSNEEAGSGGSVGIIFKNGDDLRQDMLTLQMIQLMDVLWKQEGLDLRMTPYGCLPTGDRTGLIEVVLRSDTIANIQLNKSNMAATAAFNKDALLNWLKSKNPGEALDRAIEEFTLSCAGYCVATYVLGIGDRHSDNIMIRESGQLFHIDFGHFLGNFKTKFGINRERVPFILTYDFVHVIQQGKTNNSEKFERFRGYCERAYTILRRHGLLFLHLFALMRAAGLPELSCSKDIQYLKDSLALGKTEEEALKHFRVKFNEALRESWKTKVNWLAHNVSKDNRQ
# PI3Kγ = biological target: T4, PI3Kγ (Homo sapiens, UniProt P48736); settings: human recombinant PI3Kγ, ATP 30 μM; read-out: PI3K gamma inhibition
# T4 construct: purchased Millipore Ltd (Billerica, Mass.)
# T4 sequence (P48736 whole entry): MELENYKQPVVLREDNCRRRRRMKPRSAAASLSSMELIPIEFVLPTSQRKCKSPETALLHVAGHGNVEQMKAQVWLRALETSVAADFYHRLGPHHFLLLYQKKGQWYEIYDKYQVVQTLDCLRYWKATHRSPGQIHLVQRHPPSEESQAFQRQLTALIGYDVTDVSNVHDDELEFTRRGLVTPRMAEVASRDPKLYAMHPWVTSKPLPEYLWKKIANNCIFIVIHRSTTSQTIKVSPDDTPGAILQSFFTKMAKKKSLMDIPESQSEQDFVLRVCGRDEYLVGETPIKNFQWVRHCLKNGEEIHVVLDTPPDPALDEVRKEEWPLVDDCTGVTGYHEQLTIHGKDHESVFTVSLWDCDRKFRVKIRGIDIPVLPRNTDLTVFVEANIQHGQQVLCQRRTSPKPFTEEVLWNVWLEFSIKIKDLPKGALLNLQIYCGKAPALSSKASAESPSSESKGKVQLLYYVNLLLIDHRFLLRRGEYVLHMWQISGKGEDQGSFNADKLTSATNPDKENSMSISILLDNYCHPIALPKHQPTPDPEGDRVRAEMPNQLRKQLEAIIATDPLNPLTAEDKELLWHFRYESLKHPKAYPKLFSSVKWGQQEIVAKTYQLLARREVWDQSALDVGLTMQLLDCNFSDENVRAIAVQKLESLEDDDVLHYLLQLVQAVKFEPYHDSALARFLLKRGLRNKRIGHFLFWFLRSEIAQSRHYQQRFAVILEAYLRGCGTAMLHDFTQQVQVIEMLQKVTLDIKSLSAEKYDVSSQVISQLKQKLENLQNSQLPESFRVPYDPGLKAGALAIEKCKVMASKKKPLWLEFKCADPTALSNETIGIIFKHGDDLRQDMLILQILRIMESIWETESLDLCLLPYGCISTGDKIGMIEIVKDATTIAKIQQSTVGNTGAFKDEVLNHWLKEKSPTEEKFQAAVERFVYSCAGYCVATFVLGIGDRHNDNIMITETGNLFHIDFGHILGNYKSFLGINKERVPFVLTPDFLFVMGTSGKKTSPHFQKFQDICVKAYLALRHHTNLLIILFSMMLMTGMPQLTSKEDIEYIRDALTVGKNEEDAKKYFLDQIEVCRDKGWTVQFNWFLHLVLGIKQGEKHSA
SMILES,IC50 (PI3Kα),IC50 (PI3Kβ),IC50 (PI3Kδ),IC50 (PI3Kγ)
"CC(c1oc(=O)c2ccccc2c1C1=CCN(C)CC1)n1nc(-c2cc(O)cc(Cl)c2)c2c(N)ncnc21 (centres unmarked) [Example 154, 3-(1-(4-amino-3-(3-chloro-5-hydroxyphenyl)-1H-pyrazolo[3,4-d]pyrimidin-1-yl)ethyl)-4-(1-methyl-1,2,3,6-tetrahydropyridin-4-yl)-1H-isochromen-1-one formate]",> 1000 nM,10 to 1000 nM,< 10 nM,> 1000 nM
"CC(c1oc(=O)c2ccccc2c1-c1cncs1)n1nc(-c2cc(O)cc(F)c2)c2c(N)ncnc21 (single isomer, unassigned) [Example 167b, 3-(1-(4-amino-3-(3-fluoro-5-hydroxyphenyl)-1H-pyrazolo[3,4-d]pyrimidin-1-yl)ethyl)-4-(thiazol-5-yl)-1H-isochromen-1-one single enantiomer]",> 1000 nM,10 to 1000 nM,< 10 nM,10 to 1000 nM
"CC(c1oc(=O)c2ccccc2c1C1=CCN(C2CN(CC3CC3)C2)CC1)n1nc(-c2cc(O)cc(F)c2)c2c(N)ncnc21 (centres unmarked) [Example 157, 3-(1-(4-amino-3-(3-fluoro-5-hydroxyphenyl)-1H-pyrazolo[3,4-d]pyrimidin-1-yl)ethyl)-4-(1-(1-(cyclopropylmethyl)azetidin-3-yl)-1,2,3,6-tetrahydropyridin-4-yl)-1H-isochromen-1-one dihydrochloride]",> 1000 nM,10 to 1000 nM,< 10 nM,10 to 1000 nM
"CC(c1oc(=O)c2ccccc2c1C1=CC(C)(C)NC(C)(C)C1)n1nc(-c2cncc(O)c2)c2c(N)ncnc21 (centres unmarked) [Example 145, 3-(1-(4-amino-3-(5-hydroxypyridin-3-yl)-1H-pyrazolo[3,4-d]pyrimidin-1-yl)ethyl)-4-(2,2,6,6-tetramethyl-1,2,3,6-tetrahydropyridin-4-yl)-1H-isochromen-1-one dihydrochloride]",10 to 1000 nM,10 to 1000 nM,< 10 nM,10 to 1000 nM
"CC(c1oc(=O)c2ccccc2c1-c1ccccc1)n1nc(-c2cnc(C(F)(F)F)c(O)c2)c2c(N)ncnc21 (centres unmarked) [Example 161, 3-(1-(4-amino-3-(5-hydroxy-6-(trifluoromethyl)pyridin-3-yl)-1H-pyrazolo[3,4-d]pyrimidin-1-yl)ethyl)-4-phenyl-1H-isochromen-1-one]",> 1000 nM,> 1000 nM,< 10 nM,> 1000 nM
"Cc1cccc(-c2c(C(C)n3nc(I)c4c(N)ncnc43)oc(=O)c3ccccc23)c1 (centres unmarked) [Int D3, 3-(1-(4-Amino-3-iodo-1H-pyrazolo[3,4-d]pyrimidin-1-yl)ethyl)-4-m-tolyl-1H-isochromen-1-one]",> 1000 nM,> 1000 nM,< 10 nM,10 to 1000 nM
"CC(c1oc(=O)c2ccccc2c1-c1cccc(C(=O)NCCN(C)C)c1)n1nc(-c2cc(O)cc(F)c2)c2c(N)ncnc21 (centres unmarked) [Example 70, 3-(3-(1-(4-amino-3-(3-fluoro-5-hydroxyphenyl)-1H-pyrazolo[3,4-d]pyrimidin-1-yl)ethyl)-1-oxo-1H-isochromen-4-yl)-N-(2-(dimethylamino)ethyl)benzamide hydrochloride]",> 1000 nM,10 to 1000 nM,< 10 nM,10 to 1000 nM
"CC(c1oc(=O)c2ccccc2c1-c1cncs1)n1nc(-c2cc(O)cc(F)c2)c2c(N)ncnc21 (single isomer, unassigned) [Example 167a, 3-(1-(4-amino-3-(3-fluoro-5-hydroxyphenyl)-1H-pyrazolo[3,4-d]pyrimidin-1-yl)ethyl)-4-(thiazol-5-yl)-1H-isochromen-1-one single enantiomer]",10 to 1000 nM,10 to 1000 nM,< 10 nM,10 to 1000 nM
"CC(c1oc(=O)c2ccccc2c1-c1ccc(CN2CCN(C)CC2)s1)n1nc(-c2cc(O)cc(F)c2)c2c(N)ncnc21 (centres unmarked) [Example 135, 3-(1-(4-amino-3-(3-fluoro-5-hydroxyphenyl)-1H-pyrazolo[3,4-d]pyrimidin-1-yl)ethyl)-4-(5-((4-methyl)piperazin-1-yl)methyl)thiophen-2-yl)-1H-isochromen-1-one, dihydrochloride]",10 to 1000 nM,10 to 1000 nM,< 10 nM,10 to 1000 nM
"CC(c1oc(=O)c2ccccc2c1-c1ccc(CN2CCCCC2)s1)n1nc(-c2cc(O)cc(F)c2)c2c(N)ncnc21 (single isomer, unassigned) [Example 68b, 3-(1-(4-amino-3-(3-fluoro-5-hydroxyphenyl)-1H-pyrazolo[3,4-d]pyrimidin-1-yl)ethyl)-4-(5-(piperidin-1-ylmethyl)thiophen-2-yl)-1H-isochromen-1-one hydrochloride single enantiomers]",10 to 1000 nM,10 to 1000 nM,< 10 nM,10 to 1000 nM
"CC(c1oc(=O)c2ccccc2c1C1=CCCN(C2CCN(C)CC2)C1)n1nc(-c2cc(O)cc(F)c2)c2c(N)ncnc21 (centres unmarked) [Example 172, 3-(1-(4-amino-3-(3-fluoro-5-hydroxyphenyl)-1H-pyrazolo[3,4-d]pyrimidin-1-yl)ethyl)-4-(1-(1-methylpiperidin-4-yl)-1,2,5,6-tetrahydropyridin-3-yl)-1H-isochromen-1-one dihydrochloride]",10 to 1000 nM,10 to 1000 nM,10 to 1000 nM,10 to 1000 nM
"CC(c1oc(=O)c2ccccc2c1C1=CCCN(Cc2ccccc2)C1)n1nc(-c2cc(O)cc(F)c2)c2c(N)ncnc21 (single isomer, unassigned) [Example 169a, 3-(1-(4-amino-3-(3-fluoro-5-hydroxyphenyl)-1H-pyrazolo[3,4-d]pyrimidin-1-yl)ethyl)-4-(1-benzyl-1,2,5,6-tetrahydropyridin-3-yl)-1H-isochromen-1-one hydrochloride single enantiomers]",> 1000 nM,10 to 1000 nM,< 10 nM,10 to 1000 nM
"CC(Nc1ncnc2[nH]cnc12)c1oc(=O)c2ccccc2c1C1=CCN(C)CC1 (centres unmarked) [Example 45, 3-(1-(9H-purin-6-ylamino)ethyl)-4-(1-methyl-1,2,3,6-tetrahydropyridin-4-yl)-1H-isochromen-1-one hydrochloride]",> 1000 nM,> 1000 nM,< 10 nM,> 1000 nM
"CC(c1oc(=O)c2ccccc2c1C1=CC(C)(C)NC(C)(C)C1)n1nc(-c2cc(O)cc(F)c2)c2c(N)ncnc21 (centres unmarked) [Example 144, 3-(1-(4-amino-3-(3-fluoro-5-hydroxyphenyl)-1H-pyrazolo[3,4-d]pyrimidin-1-yl)ethyl)-4-(2,2,6,6-tetramethyl-1,2,3,6-tetrahydropyridin-4-yl)-1H-isochromen-1-one hydrochloride]",> 1000 nM,10 to 1000 nM,< 10 nM,10 to 1000 nM
"CC(c1oc(=O)c2ccccc2c1C1=CCN(C2CNC2)CC1)n1nc(-c2cc(O)cc(F)c2)c2c(N)ncnc21 (centres unmarked) [Example 156, 3-(1-(4-amino-3-(3-fluoro-5-hydroxyphenyl)-1H-pyrazolo[3,4-d]pyrimidin-1-yl)ethyl)-4-(1-(azetidin-3-yl)-1,2,3,6-tetrahydropyridin-4-yl)-1H-isochromen-1-one dihydrochloride]",> 1000 nM,10 to 1000 nM,< 10 nM,10 to 1000 nM
"Cc1ncc(-c2nn(C(C)c3oc(=O)c4ccccc4c3-c3ccccc3)c3ncnc(N)c23)cc1O (centres unmarked) [Example 99, 3-(1-(4-amino-3-(5-hydroxy-6-methylpyridin-3-yl)-1H-pyrazolo[3,4-d]pyrimidin-1-yl)ethyl)-4-phenyl-1H-isochromen-1-one]",10 to 1000 nM,10 to 1000 nM,< 10 nM,10 to 1000 nM
"CC(c1oc(=O)c2ccccc2c1C1=CCN(C(=O)CN(C)C)CC1)n1nc(-c2cc(O)cc(F)c2)c2c(N)ncnc21 (centres unmarked) [Example 147, 3-(1-(4-amino-3-(3-fluoro-5-hydroxyphenyl)-1H-pyrazolo[3,4-d]pyrimidin-1-yl)ethyl)-4-(1-(2-(dimethylamino)acetyl)-1,2,3,6-tetrahydropyridin-4-yl)-1H-isochromen-1-one formate]",10 to 1000 nM,10 to 1000 nM,< 10 nM,10 to 1000 nM
